Earlier results, collected in patent EP0277754A1, “Method involving propylene amine oxime complexes” (AMERSHAM INTERNATIONAL plc, priority 1987, dated 1988).

In the case of `CC(=NO)C(C)(C)NCCCNC(C)(C)C(C)=NO` [PnAO], the “retention in human brain” value is listed as “retained only to a small extent”.
